Experimental data: patent US11590105B2, “Intrathecal administration of levetiracetam” (Sintetica S.A., priority 2019, dated 2023)

Assay: Osmolality of various concentrations of levetiracetam in water
Type: physicochemical
Text: Sodium chloride and other halide salts that affect the tonicity of the solution are preferably omitted from the formulations and unnecessary because levetiracetam itself yields an isotonic (or slightly above isotonic) formulation in the formulations of the present invention. The following table gives the osmolality of various concentrations of levetiracetam in water: […]

- Osmolality (levetiracetam conc. 2.75 mg/ml in water): 16 mOsm/kg
- Osmolality (levetiracetam conc. 45 mg/ml in water): 262 mOsm/kg
- Osmolality (levetiracetam conc. 50 mg/ml in water): 292 mOsm/kg
- Osmolality (levetiracetam conc. 60 mg/ml in water): 348 mOsm/kg
- Osmolality (levetiracetam conc. 65 mg/ml in water): 377 mOsm/kg
SMILES: CC[C@@H](C(N)=O)N1CCCC1=O [Levetiracetam, (−)-(S)-α-ethyl-2-oxo-1-pyrrolidine acetamide]
